Here are results for four molecules from patent publication US10716765B2, “Delivery of functional compounds” (Intercontinental Great Brands LLC, priority 2009, dated 2020).

The nature of data set [1]: In vitro digestion model simulating stomach and small intestine conditions. Format: in vitro ADME. The source says:
This example compares the release of the non-esterified functional ingredient to the esterified functional ingredient during a simulated gastrointestinal study using an in vitro digestion model.
In addition, the partition coefficients for the ester compounds are greater than the parent compounds. These factors indicate that the ester compounds have a greater affinity for the hydrophobic carrier and insoluble matrix material than the parent compounds. […] The reduced rate is most evident when comparing linalool and thymol release from FIG. 4 to linalyl acetate and thymyl acetate release from FIG. 5. This improvement in stability within the model stomach implies increased stability in other low pH systems, such as acidic beverages, and further illustrates the importance of the esters for successful microencapsulation and enteric release of the functional ingredients.
As evident in FIGS. 4 and 5, the gastric release rate was reduced, as well as the release rate from 0-24.5 h, representative of the residence time in the small intestine. FIGS. 6 and 7 show the release rates of two esters of linalool, linalyl acetate in FIG. 6 and linalyl butyrate in FIG. 7 within a digestion model simulating stomach and small intestine conditions and residence times. In addition, the levels of the parent compounds present in the digestion model over time were measured. […]

For data set [2] the following is noted: versus linalool and thymol, FIG. 3; cited from earlier work.
Data set [3] is described as follows: Evaluation of emulsifiers in oil-in-water emulsion of essential oil blend. The data set is classed as physicochemical. The settings on record: compared with other emulsifiers. From the text: Various emulsifiers were combined with deionized water at 60 C to produce 2% solutions. The resulting solutions were combined with an essential oil blend composition (4% alpha-pinene, 30% para-cymene, 7% linalool, and 35% thymol and 24% soybean oil) in a 50:50 weight ratio with deionized water to create an oil-in-water emulsion. The emulsifiers evaluated were Glycosperse S-20 KFG (Lonza; Fairlawn, N.J.), Polyaldo 10-1-O KFG (Lonza; Fairlawn, N.J.), Aldosperse MS-20 KFG (Lonza; Fairlawn, N.J.), Polyaldo 10-2-P KFG (Lonza; Fairlawn, N.J.), Ryoto sugar ester (S-1570, Mitsubishi-Kagaku Food Corp.; Tokyo, Japan), Precept 8120 (Central Soya; Fort Wayne, Ind.) and sodium caseinate (Alanate-180, New Zealand Dairy Board; Wellington, New Zealand).

On to `C=CC(C)(CCC=C(C)C)OC(C)=O` (stereo not shown) [linalyl acetate], for which the “hydrolysis of the ester to linalool” value in data set [1] is listed as “about 33%”. In data set [2], the “partition coefficient compared with parent compounds” value is reported as “greater” and the “solubility in water compared with parent compounds” value is on record as “significantly lower”.
Turning to `CC(=O)Oc1cc(C)ccc1C(C)C` [thymyl acetate], in data set [2], the “partition coefficient compared with parent compounds” value is given as “greater” and the “solubility in water compared with parent compounds” value was “significantly lower”.
For `C=CC(C)(CCC=C(C)C)OC(=O)CCC` (stereo not shown) [linalyl butyrate], the “hydrolysis of the ester to linalool” value in data set [1] is listed as “about 5%”. Further, in data set [2], the “partition coefficient compared with parent compounds” value was “greater” and the “solubility in water compared with parent compounds” value was “significantly lower”.
As for sucrose stearate [Example S-1570], in data set [3] (2% emulsifier solution, 50:50 with essential oil blend), the “oil droplets within the emulsion” value was “smallest and most uniformly dispersed oil droplets”. In addition, the emulsion stability entry in data set [3] (after 24 hours storage at room temperature) is reported as “greatest stability”.
